Activity calls are given as the source filed them. How the calls were made is not given here.
Tested on: CCRIS mutagenicity, Ames/micronucleus/aberration tests
Test: CCRIS mutagenicity studies
[1] = Test System: AMES SALMONELLA TYPHIMURIUM, Strain/Indicator: TA98, Metabolic Activation: NONE, Method: STANDARD PLATE
[2] = Test System: AMES SALMONELLA TYPHIMURIUM, Strain/Indicator: TA100, Metabolic Activation: NONE, Method: STANDARD PLATE
[3] = Test System: AMES SALMONELLA TYPHIMURIUM, Strain/Indicator: TA100, Metabolic Activation: RAT, LIVER, S-9, AROCLOR 1254, Method: STANDARD PLATE
[4] = Test System: AMES SALMONELLA TYPHIMURIUM, Strain/Indicator: TA1537, Metabolic Activation: NONE, Method: STANDARD PLATE
[5] = Test System: AMES SALMONELLA TYPHIMURIUM, Strain/Indicator: TA100, Metabolic Activation: RAT, LIVER, S-9, PHENOBARBITAL, Method: STANDARD PLATE

SMILES: CCc1ccc2c3c(cccc13)-c1ccccc1-2
- mutagenic call [1]: inactive; negative
- mutagenic call (Test System: AMES SALMONELLA TYPHIMURIUM, Strain/Indicator: TA98, Metabolic Activation: RAT, LIVER, S-9, AROCLOR 1254 (4%), Method: STANDARD PLATE): inactive; negative

SMILES: O=[N+]([O-])c1cc(NS(=O)(=O)c2cccc3cccnc23)ccc1Cl
- mutagenic call [1]: inactive; negative
- mutagenic call (Test System: AMES SALMONELLA TYPHIMURIUM, Strain/Indicator: TA98, Metabolic Activation: RAT, LIVER, S-9, AROCLOR 1254, Method: STANDARD PLATE): inactive; negative
- mutagenic call [2]: inactive; negative
- mutagenic call [3]: inactive; negative
- mutagenic call (Test System: AMES SALMONELLA TYPHIMURIUM, Strain/Indicator: TA1535, Metabolic Activation: NONE, Method: STANDARD PLATE): inactive; negative
- mutagenic call (Test System: AMES SALMONELLA TYPHIMURIUM, Strain/Indicator: TA1535, Metabolic Activation: RAT, LIVER, S-9, AROCLOR 1254, Method: STANDARD PLATE): inactive; negative
- mutagenic call [4]: inactive; negative
- mutagenic call (Test System: AMES SALMONELLA TYPHIMURIUM, Strain/Indicator: TA1537, Metabolic Activation: RAT, LIVER, S-9, AROCLOR 1254, Method: STANDARD PLATE): inactive; negative

SMILES: Cc1c(C)c2c(N)c3ccccc3nc2c2ccccc12
- mutagenic call (Test System: AMES SALMONELLA TYPHIMURIUM, Strain/Indicator: TA97, Metabolic Activation: NONE, Method: PREINCUBATION): active; positive
- mutagenic call (Test System: AMES SALMONELLA TYPHIMURIUM, Strain/Indicator: TA97, Metabolic Activation: NONE, Method: STANDARD PLATE): active; positive
- mutagenic call (Test System: AMES SALMONELLA TYPHIMURIUM, Strain/Indicator: TA98, Metabolic Activation: NONE, Method: PREINCUBATION): active; positive
- mutagenic call (Test System: AMES SALMONELLA TYPHIMURIUM, Strain/Indicator: TA1537, Metabolic Activation: NONE, Method: PREINCUBATION): inactive; negative
- mutagenic call [4]: active; positive

SMILES: BrCc1c2ccccc2cc2ccccc12
- mutagenic call [1]: active; positive
- mutagenic call [2]: active; positive

SMILES: C[C@@H]1CC[C@@]2(OC1)O[C@H]1CC3[C@@H]4CC=C5C[C@@H](O[C@@H]6O[C@H](CO)[C@@H](O[C@@H]7O[C@@H](C)[C@H](O)[C@@H](O)[C@H]7O)[C@H](O)[C@H]6O[C@@H]6O[C@@H](C)[C@H](O)[C@@H](O)[C@H]6O)CC[C@]5(C)[C@H]4CC[C@]3(C)[C@H]1[C@@H]2C (some centres undefined)
- mutagenic call [1]: inactive; negative
- mutagenic call (Test System: AMES SALMONELLA TYPHIMURIUM, Strain/Indicator: TA98, Metabolic Activation: RAT, LIVER, S-9, PHENOBARBITAL, Method: STANDARD PLATE): inactive; negative
- mutagenic call [2]: inactive; negative
- mutagenic call [5]: inactive; negative

SMILES: C[C@]12CC[C@@H]3c4ccc(OC(=O)c5ccccc5)cc4CC[C@H]3[C@@H]1CC[C@@H]2O
- mutagenic call (End Point: IN VIVO MICRONUCLEUS, Test System: BONE MARROW POLYCHROMATIC ERYTHROCYTES, Species: RAT, Strain/Sex: ALDERLEY PARK (AP)/FEMALE, Route: SUBCUTANEOUS (TEST MATERIAL SOLVENT: OIL)): inactive; negative

SMILES: CN(C)N=Nc1ccc(C(=O)O)cc1
- mutagenic call (Test System: AMES SALMONELLA TYPHIMURIUM, Strain/Indicator: G46, Metabolic Activation: NONE, Method: STANDARD PLATE): inactive; negative
- mutagenic call (Test System: AMES SALMONELLA TYPHIMURIUM, Strain/Indicator: G46, Metabolic Activation: RAT, LIVER, S-9, PHENOBARBITAL, Method: STANDARD PLATE): active; positive
- mutagenic call (Test System: AMES SALMONELLA TYPHIMURIUM, Strain/Indicator: TA92, Metabolic Activation: NONE, Method: STANDARD PLATE): active; positive
- mutagenic call (Test System: AMES SALMONELLA TYPHIMURIUM, Strain/Indicator: TA92, Metabolic Activation: RAT, LIVER, S-9, PHENOBARBITAL, Method: PREINCUBATION): inactive; negative
- mutagenic call (Test System: AMES SALMONELLA TYPHIMURIUM, Strain/Indicator: TA92, Metabolic Activation: RAT, LIVER, S-9, PHENOBARBITAL, Method: STANDARD PLATE): inactive; negative
- mutagenic call [2]: inactive; negative
- mutagenic call [5]: inactive; negative
- mutagenic call (Test System: E. COLI, Strain/Indicator: TM6, Metabolic Activation: NONE, Method: STANDARD PLATE): active; positive
- mutagenic call (Test System: E. COLI, Strain/Indicator: TM6, Metabolic Activation: RAT, LIVER, S-9 PHENOBARBITAL, Method: STANDARD PLATE): active; positive
- mutagenic call (Test System: E. COLI, Strain/Indicator: TM9, Metabolic Activation: NONE, Method: STANDARD PLATE): active; positive
- mutagenic call (Test System: E. COLI, Strain/Indicator: TM9, Metabolic Activation: RAT, LIVER, S-9 PHENOBARBITAL, Method: STANDARD PLATE): active; positive
- mutagenic call (Test System: E. COLI, Strain/Indicator: WP2, Metabolic Activation: NONE, Method: STANDARD PLATE): active; positive
- mutagenic call (Test System: E. COLI, Strain/Indicator: WP2, Metabolic Activation: RAT, LIVER, S-9 PHENOBARBITAL, Method: STANDARD PLATE): active; positive
- mutagenic call (Test System: E. COLI, Strain/Indicator: WP2 UVRA, Metabolic Activation: NONE, Method: STANDARD PLATE): active; positive
- mutagenic call (Test System: E. COLI, Strain/Indicator: WP2 UVRA, Metabolic Activation: RAT, LIVER, S-9 PHENOBARBITAL, Method: STANDARD PLATE): active; positive

SMILES: COc1ccc(N(CCCl)CCCl)c2cc([N+](=O)[O-])oc12
- mutagenic call (Test System: AMES SALMONELLA TYPHIMURIUM, Strain/Indicator: TA100(NR), Metabolic Activation: NONE, Method: STANDARD PLATE): inactive; negative
- mutagenic call (Test System: AMES SALMONELLA TYPHIMURIUM, Strain/Indicator: TA100(NR), Metabolic Activation: RAT, LIVER, S-9, AROCLOR 1254, Method: STANDARD PLATE): active; positive
- mutagenic call [2]: active; positive
- mutagenic call [3]: active; positive

SMILES: CC1(C)CC2=C(C=O)[C@@]3(C=O)C[C@@]3(C)[C@@H](O)[C@@H]2C1
- mutagenic call [1]: active; positive
- mutagenic call [2]: active; positive
- mutagenic call (Test System: CHINESE HAMSTER V-79, Strain/Indicator: V-79/6-THIOGUANINE (HGPRT), Metabolic Activation: NONE): inactive; negative

From PubChem BioAssay AID1259407 (Chemical Carcinogenesis Research Information System (CCRIS), 2018)
